Measured values: patent US7872040B2, “Receptor blocker and vasodilator comprising indole derivative as active ingredient” (priority 2004, dated 2011)

Tests used:
[1] = tested on: α2-adrenoceptor; experiment: Relaxation of clonidine-induced contraction of isolated rat thoracic aorta ring preparations (α2-receptor antagonistic and vasodilator effect); details: sample 10^-5 M; Wistar rat thoracic aorta rings contracted with clonidine (10^-7 M or 10^-6 M) in presence of L-NAME 10^-4 M; mean±standard error
Excerpt: (1) Preparation of Blood Vessel
Male Wistar rats were euthanized by cervical dislocation under ether anesthesia or without anesthesia and then exsanguinated by cutting the carotid arteries. Immediately thereafter, the thoracic aortae were isolated by thoracotomy. The isolated preparations were held in Krebs-Hepes solutions [mM: NaCl, 126.9; KCl, 5.9; CaCl2, 2.36; MgCl2, 1.18; Hepes, 10.03; glucose, 11.8 (pH=7.4)] gassed with O2 (100%). The connective tissues and adipose tissues were carefully removed under a stereoscopic microscope. Then, the aortic tissue was cut into ring preparations approximately 2 mm in length to use in the experiment. The vascular endothelium was not removed.
(2) Measurement of Muscle Contractile/Relaxant Response
The blood vessel preparations were held in an organ bath (UC-5TD, UFER™ Medical Instrument, Kyoto, Japan) containing 5 ml of Normal Tyrode's solution gassed with 95% O2-5% CO2. Two stainless hooks were used to suspend the preparations. Tension changes were recorded isometrically via tension transducers (T7-8-240, ORIENTEC Co., Ltd, Tokyo, Japan; and TB-611T, NIHON KOHDEN Corp., Tokyo, Japan) and amplifiers (AP-600G and AP-621G, NIHON KOHDEN Corp., Tokyo, Japan; and MSC-2, Labo Support Corporation, Osaka, Japan). Passive tension was set to the optimum tension of 2.0 g. The composition of the Normal Tyrode's solution was as follows: (mM): NaCl, 158.3; KCl, 4.0; CaCl2, 2.0; MgCl2, 1.05; NaH2PO4, 0.42; NaHCO3, 10.0; glucose, 5.6 (pH=7.4, 37±0.5° C.).
The preparations were then incubated for 60 to 90 minutes in Normal Tyrode's solution, which was replaced with 20-minute to 30-minute intervals. To start the experiment, the preparations were first allowed to contract with a high potassium solution (high-KCl, 80 mM KCl) [composition (mM): NaCl, 82.3; KCl, 80.0; CaCl2, 2.0; MgCl2, 1.05; NaH2PO4, 0.42; NaHCO3, 10.0; glucose, 5.6 (pH=7.4)] to confirm that the preparations normally contracted. Then, the preparations were washed with a Normal Tyrode's solution, and the experiment was started.
For the purpose of evaluating the potencies of indole derivatives tested, the artery preparations were stimulated with an α2-adrenoceptor agonist clonidine hydrochloride (Wako Pure Chemical Industries, Ltd., Osaka, Japan) (10^−7 M or 10^−6 M) in the presence of an NO synthase inhibitor N^G-nitro-L-arginine methyl ester (DOJNDO Laboratories, Kumamoto, Japan) (10^−4 M) to thereby induce continuous contraction. After developed tension reached a steady-sate level, samples (indole derivatives) (10^−5 M) were administered to the bath solution. After the relaxant effects of the samples reached the maximum levels, an α2-adrenoceptor antagonist yohimbine hydrochloride (Wako Pure Chemical Industries, Ltd., Osaka, Japan) (10^−5 M) was administered to the bath solution. Relaxant response to yohimbine hydrochloride (10^−5 M) and the height of contraction immediately before sample administration were defined as the maximum relaxation (=100%) and 0%, respectively, and the relaxant effect of the samples were expressed as percentages relative to the maximum relaxation to yohimbine hydrochloride (10^−5 M).
The indole derivatives (samples Nos. 1 to 23) were dissolved in 100% dimethyl sulfoxide at a concentration of 10^−2 M just before use and administered to a 5-mL organ bath for evaluation. All the other drugs were dissolved and diluted in distilled water.
The results were expressed as mean±standard error.

[2] = Clinical report: one test subject took sample No. 16 for 9 months and was followed up; type: in vivo, human
Procedure: A test subject was allowed to take the indole derivative (N-nonanoylindole-3-ethaneamine) of the sample No. 16 for 9 months, and followed up.
Test subject: healthy, 67 kg in body weight
Information before medication: non-smoking, approximately 180 ml of sake per week, well-balanced diets (meats, vegetables, and fishes) without fatty eating. The test subject has 100% white hair and goes to a barber shop once every five weeks. Their mustaches are sparse and remain in an unobtrusive growth state by shaving approximately once every two days. They are in the habit of jogging on Sunday. Muscle ache occurs about two days after the jogging and lasts for approximately 4 days. They feel insecure in erection (ED for approximately half a year).
Dosage and administration: two doses per day, administered at 1 mg around 12 p.m. and at 1 mg around 0 a.m.

[3] = after one month, 1 mg two doses per day

With `COc1ccc2[nH]cc(CCNC(C)=O)c2c1` [compound 1, N-acetyl-5-methoxyindole-3-ethaneamine, reference compound] the “Reaction (%): relaxant effect relative to the maximum relaxation to yohimbine hydrochloride (10^-5 M)” value [1] was 6.7 ± 6.7%.
With `COc1ccc2c(c1)c(CCNC(C)=O)cn2C(C)=O` [compound 2, N,1-diacetyl-5-methoxyindole-3-ethaneamine] the “Reaction (%): relaxant effect relative to the maximum relaxation to yohimbine hydrochloride (10^-5 M)” value [1] was 18.5 ± 9.8%.
In the case of `COc1ccc2[nH]cc(CCN(C(C)=O)C(C)=O)c2c1` [compound 3, N,N-diacetyl-5-methoxyindole-3-ethaneamine], the “Reaction (%): relaxant effect relative to the maximum relaxation to yohimbine hydrochloride (10^-5 M)” value [1] is reported as 25.6 ± 7.5%.
For `COc1ccc2[nH]cc(CCNC(C)=O)c2c1Br` [compound 4, N-acetyl-4-bromo-5-methoxyindole-3-ethaneamine], the “Reaction (%): relaxant effect relative to the maximum relaxation to yohimbine hydrochloride (10^-5 M)” value [1] was 20.3 ± 4.6%.
For `COc1ccc2[nH]c(Br)c(CCNC(C)=O)c2c1` [compound 5, N-acetyl-2-bromo-5-methoxyindole-3-ethaneamine], the “Reaction (%): relaxant effect relative to the maximum relaxation to yohimbine hydrochloride (10^-5 M)” value [1] was 43.1 ± 16.0%.
With `COc1cc2c(CCNC(C)=O)c(Br)[nH]c2cc1Br` [compound 6, N-acetyl-2,6-dibromo-5-methoxyindole-3-ethaneamine] the “Reaction (%): relaxant effect relative to the maximum relaxation to yohimbine hydrochloride (10^-5 M)” value [1] was 64.0 ± 4.1%.
In the case of `COc1ccc2[nH]c(Br)c(CCNC(C)=O)c2c1Br` [compound 7, N-acetyl-2,4-dibromo-5-methoxyindole-3-ethaneamine], the “Reaction (%): relaxant effect relative to the maximum relaxation to yohimbine hydrochloride (10^-5 M)” value [1] is reported as 73.5 ± 15.3%.
For `COc1c(Br)cc2[nH]c(Br)c(CCNC(C)=O)c2c1Br` [compound 8, N-acetyl-2,4,6-tribromo-5-methoxyindole-3-ethaneamine], the “Reaction (%): relaxant effect relative to the maximum relaxation to yohimbine hydrochloride (10^-5 M)” value [1] was 85.6 ± 12.0%.
In the case of `COc1c(Br)cc2c(c1Br)c(CCNC(C)=O)c(Br)n2C(C)=O` [compound 9, N,1-diacetyl-2,4,6-tribromo-5-methoxyindole-3-ethaneamine], the “Reaction (%): relaxant effect relative to the maximum relaxation to yohimbine hydrochloride (10^-5 M)” value [1] is reported as 97.6 ± 2.4%.
For `O=C(NCCc1c[nH]c2ccccc12)C1CC1` [compound 10, N-cyclopropylcarbonylindole-3-ethaneamine], the “Reaction (%): relaxant effect relative to the maximum relaxation to yohimbine hydrochloride (10^-5 M)” value [1] was 21.4%.
In the case of `O=C(NCCc1cn(O)c2ccccc12)C1CC1` [compound 11, 1-hydroxy-N-cyclopropylcarbonylindole-3-ethaneamine], the “Reaction (%): relaxant effect relative to the maximum relaxation to yohimbine hydrochloride (10^-5 M)” value [1] is reported as 15.7 ± 6.8%.
With `CCCCC(=O)NCCc1c[nH]c2ccccc12` [compound 12, N-pentanoylindole-3-ethaneamine] the “Reaction (%): relaxant effect relative to the maximum relaxation to yohimbine hydrochloride (10^-5 M)” value [1] was 26.9 ± 11.4%.
With `CCCCC(=O)NCCc1cn(O)c2ccccc12` [compound 13, 1-hydroxy-N-pentanoylindole-3-ethaneamine] the “Reaction (%): relaxant effect relative to the maximum relaxation to yohimbine hydrochloride (10^-5 M)” value [1] was 25.6 ± 6.0%.
With `CCCCCCC(=O)NCCc1c[nH]c2ccccc12` [compound 14, N-heptanoylindole-3-ethaneamine] the “Reaction (%): relaxant effect relative to the maximum relaxation to yohimbine hydrochloride (10^-5 M)” value [1] was 70.0 ± 6.9%.
In the case of `CCCCCCC(=O)NCCc1cn(O)c2ccccc12` [compound 15, 1-hydroxy-N-heptanoylindole-3-ethaneamine], the “Reaction (%): relaxant effect relative to the maximum relaxation to yohimbine hydrochloride (10^-5 M)” value [1] is reported as 66.2 ± 13.9%.
For `CCCCCCCCC(=O)NCCc1c[nH]c2ccccc12` [compound 16, N-nonanoylindole-3-ethaneamine], the erection ([2]; after nine months) was “became equal to that in their newly-married days”, the hair regrowth ([2]; after nine months) was “approximately half the hairs in the whole head except for the left frontal part of the temporal region were black hairs” and the “muscle ache after jogging” value ([2]; after nine months) was “rapidly disappeared in one day”. The “skin tone and complexion” value ([2]; after nine months) was “improved”, the erection ([2]; after one month) was “considerably improved” and the memory ([2]; after one month) was “memory was improved”. For the same molecule, the “muscle ache after jogging” value ([2]; after one month) was “slight”, the “growth of the black hairs” value [2, 3] was “approximately 0.5 mm per day” and the hair regrowth [2, 3] was “black hairs were observed to grow in the scalp of the frontal part of the parietal region that had no hair”. For the same molecule, the erection ([2]; after three months) was “improved”, the hair regrowth ([2]; after three months) was “Many black hairs were observed to grow throughout the head except for the left frontal part of the temporal region” and the memory ([2]; after three months) was “memory and retentive powers were recovered”. The “time until muscle ache after jogging disappeared” value ([2]; after three months) was 2 days, the “duration of dilation of cutaneous and penile blood vessels” value ([2]; person, 1 mg two doses per day) was “approximately 10 hours” and the “Reaction (%): relaxant effect relative to the maximum relaxation to yohimbine hydrochloride (10^-5 M)” value [1] was 80.7 ± 2.5%.
In the case of `CCCCCCCCC(=O)NCCc1cn(O)c2ccccc12` [compound 17, 1-hydroxy-N-nonanoylindole-3-ethaneamine], the “Reaction (%): relaxant effect relative to the maximum relaxation to yohimbine hydrochloride (10^-5 M)” value [1] is reported as 79.0 ± 13%.
With `O=C(CCCc1c[nH]c2ccccc12)NC12CC3CC(CC(C3)C1)C2` [compound 18, N-adamantyl-4-(indole-3-yl)butaneamide] the “Reaction (%): relaxant effect relative to the maximum relaxation to yohimbine hydrochloride (10^-5 M)” value [1] was 58.6 ± 10.6%.
In the case of `O=C(CCCc1c[nH]c2ccccc12)NC12CC3CC(CC(C3)C1)C2` [compound 23, N-adamantyl-4-(indole-3-yl)butaneamide], the “Reaction (%): relaxant effect relative to the maximum relaxation to yohimbine hydrochloride (10^-5 M)” value [1] is reported as 91.5 ± 1.32%.
In the case of “N-adamantyl-2-(1-hydroxyindole-3-yl)acetamide [compound 22]”, the “Reaction (%): relaxant effect relative to the maximum relaxation to yohimbine hydrochloride (10^-5 M)” value [1] is reported as 100.0 ± 0.00%.
In the case of “N-adamantyl-2-(indole-3-yl)acetamide [compound 20]”, the “Reaction (%): relaxant effect relative to the maximum relaxation to yohimbine hydrochloride (10^-5 M)” value [1] is reported as 64.2 ± 8.70%.
For “N-adamantyl-3-(indole-3-yl)propaneamide [compound 19]”, the “Reaction (%): relaxant effect relative to the maximum relaxation to yohimbine hydrochloride (10^-5 M)” value [1] was 60.6 ± 20.7%.
For “N-adamantyl-4-(1-hydroxyindole-3-yl)butaneamide [compound 21]”, the “Reaction (%): relaxant effect relative to the maximum relaxation to yohimbine hydrochloride (10^-5 M)” value [1] was 87.7 ± 8.53%.
